Biological target: T1, CFTR (Homo sapiens, UniProt P13569, DEL508-508)
T1 construct: Primary CF airway epithelial cells were obtained from the UNC Cystic Fibrosis Tissue Procurement and Cell Culture Core; host or cells: primary CF airway epithelial cells
Assay: Equivalent current assay in Primary CF airway epithelial cells (NAUC)
Format: cell-based
Details: 24 h, normalized to VX809 (3 μM) positive control; for Nauc @ 3 μM: 3 μM test compound; for Nauc @ 10 μM: 10 μM test compound
How it was run: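 Primary CF airway epithelia differentiated ≥4 weeks at air-liquid interface, treated basolaterally 24 h at 37 °C with test compounds in combination with VX809, 0.1% DMSO vehicle. Equivalent current recorded after 5 μM benzamil, 10 μM forskolin plus 1 μM VX770, then CFTR-172/bumetanide 20 μM; vehicle-subtracted AUC normalized to 3 μM VX809 (NAUC), median of n≥4, sigmoid fit for EC50.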

T1 sequence (P13569 with tags, fused parts or gaps DEL508-508): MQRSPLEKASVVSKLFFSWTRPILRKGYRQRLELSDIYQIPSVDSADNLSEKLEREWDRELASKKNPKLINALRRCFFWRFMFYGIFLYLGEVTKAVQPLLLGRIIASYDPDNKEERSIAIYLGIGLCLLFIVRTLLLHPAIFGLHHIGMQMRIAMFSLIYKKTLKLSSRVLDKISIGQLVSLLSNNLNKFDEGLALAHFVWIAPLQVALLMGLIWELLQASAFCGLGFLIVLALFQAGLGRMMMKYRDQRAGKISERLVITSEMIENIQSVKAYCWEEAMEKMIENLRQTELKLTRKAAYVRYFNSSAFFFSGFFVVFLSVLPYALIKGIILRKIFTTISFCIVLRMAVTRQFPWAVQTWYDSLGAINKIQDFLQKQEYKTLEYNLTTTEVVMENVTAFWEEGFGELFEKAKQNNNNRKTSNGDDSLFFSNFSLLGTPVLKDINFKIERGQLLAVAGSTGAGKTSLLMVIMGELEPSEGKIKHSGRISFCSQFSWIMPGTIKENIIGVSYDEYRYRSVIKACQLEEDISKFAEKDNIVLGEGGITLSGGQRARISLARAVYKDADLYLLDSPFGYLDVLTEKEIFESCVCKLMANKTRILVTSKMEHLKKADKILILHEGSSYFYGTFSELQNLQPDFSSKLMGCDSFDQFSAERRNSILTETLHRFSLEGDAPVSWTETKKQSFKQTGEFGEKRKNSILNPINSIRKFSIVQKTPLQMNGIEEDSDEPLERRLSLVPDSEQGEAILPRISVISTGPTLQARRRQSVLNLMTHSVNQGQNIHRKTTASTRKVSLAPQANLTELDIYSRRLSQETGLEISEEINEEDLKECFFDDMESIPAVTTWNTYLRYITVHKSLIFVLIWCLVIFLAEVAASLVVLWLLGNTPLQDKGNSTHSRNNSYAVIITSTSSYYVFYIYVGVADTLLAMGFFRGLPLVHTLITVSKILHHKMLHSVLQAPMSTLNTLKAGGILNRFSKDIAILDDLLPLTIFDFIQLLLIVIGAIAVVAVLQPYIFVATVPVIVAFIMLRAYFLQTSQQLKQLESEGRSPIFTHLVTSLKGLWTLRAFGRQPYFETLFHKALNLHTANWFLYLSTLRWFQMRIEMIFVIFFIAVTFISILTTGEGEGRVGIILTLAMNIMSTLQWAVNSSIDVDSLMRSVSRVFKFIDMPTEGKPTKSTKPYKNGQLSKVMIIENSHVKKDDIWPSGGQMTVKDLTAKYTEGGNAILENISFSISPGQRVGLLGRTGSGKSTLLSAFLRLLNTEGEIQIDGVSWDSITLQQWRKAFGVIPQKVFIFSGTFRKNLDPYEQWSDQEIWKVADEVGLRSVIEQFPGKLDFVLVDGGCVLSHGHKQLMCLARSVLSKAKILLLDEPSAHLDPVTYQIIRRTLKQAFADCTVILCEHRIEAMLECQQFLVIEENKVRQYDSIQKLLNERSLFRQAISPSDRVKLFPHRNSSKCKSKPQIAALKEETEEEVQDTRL

| Structure (SMILES) | Nauc @ 3 μM | Nauc @ 10 μM |
| --- | --- | --- |
| COc1c(Cl)cc(N2C(=O)C3C4CC(C)(C)CN4C4(C(=O)Nc5c(Cl)cc(Cl)cc54)C3C2=O)cc1Cl (single isomer, unassigned) [Example 140] | +++ (NAUC “+++” refers to an observed NAUC >170% of positive control) | +++ (NAUC “+++” refers to an observed NAUC >170% of positive control) |
| O=C1C2C3CCCN3C3(C(=O)Nc4c(Cl)cc(Cl)cc43)C2C(=O)N1c1cc(Cl)cc(Cl)n1 (single isomer, unassigned) [Example 67] | +++ (NAUC “+++” refers to an observed NAUC >170% of positive control) | +++ (NAUC “+++” refers to an observed NAUC >170% of positive control) |
| O=C1C2C3CC(F)(F)CN3C3(C(=O)Nc4c(Cl)cc(Cl)cc43)C2C(=O)N1c1cc(Cl)cc(Cl)c1 (centres unmarked) [Example 53] | ++ (NAUC “++” refers to an observed NAUC 170-140% of positive control) | ++ (NAUC “++” refers to an observed NAUC 170-140% of positive control) |
| O=C1C2C3C[C@H](F)CN3C3(C(=O)Nc4c(Cl)cc(Cl)cc43)C2C(=O)N1c1cc(Cl)cc(Cl)c1 (some centres unmarked) [Example 49] | ++ (NAUC “++” refers to an observed NAUC 170-140% of positive control) | +++ (NAUC “+++” refers to an observed NAUC >170% of positive control) |
| O=C1C2C3C[C@H](F)CN3C3(C(=O)Nc4c(Cl)cc(Cl)cc43)C2C(=O)N1c1cc(Cl)cc(Cl)c1O (some centres unmarked) [Example 95] | ++ (NAUC “++” refers to an observed NAUC 170-140% of positive control) | + (NAUC “+” refers to an observed NAUC <140% of positive control) |
| O=C1C2C(Cc3c(Cl)cccc3Cl)NC3(C(=O)Nc4c(Cl)cc(Cl)cc43)C2C(=O)N1c1cc(Cl)cc(Cl)c1 (centres unmarked) [Example 228] | +++ (NAUC “+++” refers to an observed NAUC >170% of positive control) | ++ (NAUC “++” refers to an observed NAUC 170-140% of positive control) |
| CC1(C)CC2C3C(=O)N(c4cc(Cl)cc(Cl)n4)C(=O)C3C3(C(=O)Nc4c(Cl)cc(Cl)cc43)N2C1 (centres unmarked) [Example 175] | +++ (NAUC “+++” refers to an observed NAUC >170% of positive control) | +++ (NAUC “+++” refers to an observed NAUC >170% of positive control) |
| CC(=O)Oc1c(Cl)cc(Cl)cc1N1C(=O)C2C3C[C@H](F)CN3C3(C(=O)Nc4c(Cl)cc(Cl)cc43)C2C1=O (some centres unmarked) [Example 92] | +++ (NAUC “+++” refers to an observed NAUC >170% of positive control) | + (NAUC “+” refers to an observed NAUC <140% of positive control) |
| CC(C)C1NC2(C(=O)Nc3c(Cl)cc(Cl)cc32)C2C(=O)N(c3cc(Cl)cc(Cl)c3)C(=O)C12 (centres unmarked) [Example 235] | +++ (NAUC “+++” refers to an observed NAUC >170% of positive control) | +++ (NAUC “+++” refers to an observed NAUC >170% of positive control) |
| O=C1C2C3CCCN3C3(C(=O)Nc4c(Cl)cc(Cl)cc43)C2C(=O)N1CCCBr (centres unmarked) [Example 48] | ++ (NAUC “++” refers to an observed NAUC 170-140% of positive control) | + (NAUC “+” refers to an observed NAUC <140% of positive control) |
| O=C1C2C3C[C@H](F)CN3C3(C(=O)Nc4c(Cl)cc(Cl)cc43)C2C(=O)N1c1cc(O)cc(Cl)c1 (some centres unmarked) [Example 80] | ++ (NAUC “++” refers to an observed NAUC 170-140% of positive control) | ++ (NAUC “++” refers to an observed NAUC 170-140% of positive control) |
| C[C@]1(O)CC2C3C(=O)N(c4nnn[nH]4)C(=O)C3C3(C(=O)Nc4c(Cl)cc(Cl)cc43)N2C1 (stereo partly drawn) [Example 8, (7′S)-5,7-Dichloro-7′-hydroxy-7′-methyl-2′-(1H-tetrazol-5-yl)-3a′,6′,7′,8′,8a′,8b′-hexahydro-1′H-spiro[indoline-3,4′-pyrrolo[3,4-a]pyrrolizine]-1′,2,3′(2′H)-trione] | +++ (NAUC “+++” refers to an observed NAUC >170% of positive control) | + (NAUC “+” refers to an observed NAUC <140% of positive control) |
| O=C1C2C3CC(F)(F)CN3C3(C(=O)Nc4c(Cl)cc(Cl)cc43)C2C(=O)N1c1cc(Cl)cc(Cl)c1 (single isomer, unassigned) [Example 179] | +++ (NAUC “+++” refers to an observed NAUC >170% of positive control) | +++ (NAUC “+++” refers to an observed NAUC >170% of positive control) |
| [2H]C12C(=O)N(c3cc(Cl)cc(Cl)c3)C(=O)C1([2H])C1(C(=O)Nc3c(Cl)cc(Cl)cc31)N1C[C@@H](O)CC12 (some centres unmarked) [Example 64] | + (NAUC “+” refers to an observed NAUC <140% of positive control) | ++ (NAUC “++” refers to an observed NAUC 170-140% of positive control) |
| O=C1C2C3CC(=C(F)F)CN3C3(C(=O)Nc4c(Cl)cc(Cl)cc43)C2C(=O)N1c1cc(Cl)cc(Cl)c1 (centres unmarked) [Example 100] | +++ (NAUC “+++” refers to an observed NAUC >170% of positive control) | +++ (NAUC “+++” refers to an observed NAUC >170% of positive control) |
| O=C1C2C3CCCN3C3(C(=O)Nc4c(Cl)cc(Cl)cc43)C2C(=O)N1c1cc(C(F)(F)F)cc(C(F)(F)F)c1 (centres unmarked) [Example 26] | + (NAUC “+” refers to an observed NAUC <140% of positive control) | +++ (NAUC “+++” refers to an observed NAUC >170% of positive control) |
| COc1cc(Cl)cc(N2C(=O)C3C4C[C@](C)(F)CN4C4(C(=O)Nc5c(Cl)cc(Cl)cc54)C3C2=O)c1 (single isomer, unassigned) [Example 254] | +++ (NAUC “+++” refers to an observed NAUC >170% of positive control) | +++ (NAUC “+++” refers to an observed NAUC >170% of positive control) |
| C[C@]1(O)CC2C3C(=O)N(c4cc(Cl)c(OC(F)F)c(Cl)c4)C(=O)C3C3(C(=O)Nc4c(Cl)cc(Cl)cc43)N2C1 (some centres unmarked) [Example 226] | ++ (NAUC “++” refers to an observed NAUC 170-140% of positive control) | ++ (NAUC “++” refers to an observed NAUC 170-140% of positive control) |
| C[C@]1(O)CC2C3C(=O)N(c4cccc(F)n4)C(=O)C3C3(C(=O)Nc4c(Cl)cc(Cl)cc43)N2C1 (some centres unmarked) [Example 233] | +++ (NAUC “+++” refers to an observed NAUC >170% of positive control) | ++ (NAUC “++” refers to an observed NAUC 170-140% of positive control) |
| O=C1C2C3CC(F)(F)CN3C3(C(=O)Nc4c(Cl)cc(Cl)cc43)C2C(=O)N1c1cc(Cl)cc(Cl)n1 (single isomer, unassigned) [Example 220] | +++ (NAUC “+++” refers to an observed NAUC >170% of positive control) | +++ (NAUC “+++” refers to an observed NAUC >170% of positive control) |
| CC(C)(C)NC(=O)N[C@H]1CC2C3C(=O)N(c4cc(Cl)cc(Cl)c4)C(=O)C3C3(C(=O)Nc4c(Cl)cc(Cl)cc43)N2C1 (some centres unmarked) [Example 153] | + (NAUC “+” refers to an observed NAUC <140% of positive control) | ++ (NAUC “++” refers to an observed NAUC 170-140% of positive control) |
| COc1c(Cl)cc(N2C(=O)C3C4CC(F)(F)CN4C4(C(=O)Nc5c(Cl)cc(Cl)cc54)C3C2=O)cc1Cl (centres unmarked) [Example 194] | +++ (NAUC “+++” refers to an observed NAUC >170% of positive control) | ++ (NAUC “++” refers to an observed NAUC 170-140% of positive control) |
| COc1cc(Cl)cc(N2C(=O)C3C4CC(=C(F)F)CN4C4(C(=O)Nc5c(Cl)cc(Cl)cc54)C3C2=O)c1 (centres unmarked) [Example 117] | +++ (NAUC “+++” refers to an observed NAUC >170% of positive control) | +++ (NAUC “+++” refers to an observed NAUC >170% of positive control) |
| O=C1C2C3CC(C(F)(F)F)CN3C3(C(=O)Nc4c(Cl)cc(Cl)cc43)C2C(=O)N1c1cc(Cl)cc(Cl)c1 (centres unmarked) [Example 215] | +++ (NAUC “+++” refers to an observed NAUC >170% of positive control) | ++ (NAUC “++” refers to an observed NAUC 170-140% of positive control) |
| O=C1C2C3CC4(CC4)CN3C3(C(=O)Nc4c(Cl)cc(Cl)cc43)C2C(=O)N1c1cc(Cl)cc(Cl)c1 (single isomer, unassigned) [Example 191] | +++ (NAUC “+++” refers to an observed NAUC >170% of positive control) | +++ (NAUC “+++” refers to an observed NAUC >170% of positive control) |
| N#Cc1ccccc1CC1NC2(C(=O)Nc3c(Cl)cc(Cl)cc32)C2C(=O)N(c3cc(Cl)cc(Cl)c3)C(=O)C12 (centres unmarked) [Example 186] | + (NAUC “+” refers to an observed NAUC <140% of positive control) | +++ (NAUC “+++” refers to an observed NAUC >170% of positive control) |
| O=C1C2C(Cc3ccccc3F)NC3(C(=O)Nc4c(Cl)cc(Cl)cc43)C2C(=O)N1c1cc(Cl)cc(Cl)c1 (centres unmarked) [Example 181] | +++ (NAUC “+++” refers to an observed NAUC >170% of positive control) | +++ (NAUC “+++” refers to an observed NAUC >170% of positive control) |
| O=C1C2C3CCCN3C3(C(=O)Nc4c(Cl)cc(Cl)cc43)C2C(=O)N1c1cc(Cl)cc(Cl)n1 (single isomer, unassigned) [Example 3, 5,7-Dichloro-2′-(4,6-dichloropyridin-2-yl)-3a′,6′,7′,8′,8a′,8b′-hexahydro-1′H-spiro[indoline-3,4′-pyrrolo[3,4-a]pyrrolizine]-1′,2,3′(2′H)-trione] | +++ (NAUC “+++” refers to an observed NAUC >170% of positive control) | +++ (NAUC “+++” refers to an observed NAUC >170% of positive control) |

Source: US10072017B2, “Compounds and methods for the treatment of cystic fibrosis” (Flatley Discovery Lab, LLC, priority 2015, dated 2018)
